Assay results taken from PubChem BioAssay (NCI).
Several values for one entry are separate records, joined by “and”; a condition that tells them apart may be missing. Equal entries are not always repeated.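 1) Cells in 96-well plates. 2) Compound, 48 h, 5 concentrations. 3) Linear interpolation between surrounding doses. 4) Unreached endpoint = highest concentration. Abbreviation: GI50, concentration required for 50% inhibition of growth. TGI denotes the concentration required for complete inhibition of growth.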

System: PC-3 prostate
Assay: inhibition of tumour cell growth, NCI panel, 48 h

Compound	GI50	TGI
CN(C)C/C=C/C(=O)Nc1cc2c(Nc3ccc(F)c(Cl)c3)ncnc2cc1O[C@H]1CCOC1	3.19 µM and 3.26 µM	12.8 µM and > 10 µM
COc1cc(/C=C/C(=O)c2cccc(-n3cc(-c4ccc(Cl)cc4)[nH]c3=O)c2)ccc1O	1.95 µM	6.97 µM
CCN(Cc1ccc(F)cc1)c1ccc(CO)c(Br)c1	12.8 µM	36.2 µM
Cc1ccc2c(C3C(C#N)=C(N)Oc4cc5ccccc5cc43)cc(=O)oc2c1 (stereo not drawn)	1.25 µM	> 100 µM
COC(=O)c1cc2c(s1)-c1nccc3c1c(nc1ccccc13)C2=O	> 100 µM	> 100 µM
Oc1ccc(Nc2c3ccccc3nc3occ(Cl)c23)cc1	2.71 µM	20.3 µM
O=C(Nc1cc(C(F)(F)F)ccc1Cl)c1cccc(NC2=C(Cl)C(=O)N(Cc3ccccc3)C2=O)c1	14.1 µM	> 100 µM
CC1(Br)Cc2ccccc2C1=O (stereo not drawn)		22.5 µM
CN(C)C(=S)Sc1ccc([N+](=O)[O-])cc1[N+](=O)[O-]	2.17 µM	13.3 µM
CCOC(=O)/C=C/c1ccc(C#Cc2ccccc2)cc1	> 100 µM	> 100 µM
O=[P@@]1(c2ccccc2)O[C@H](COCc2ccccc2)[C@@H](OCc2ccccc2)[C@H](OCc2ccccc2)[C@H]1NCc1ccccc1	3.03 µM	> 100 µM
C[C@H]1CN[C@@H]2[C@@H](C)[C@H]3[C@@H](C[C@H]4[C@@H]5CC[C@H]6C[C@@H](N)CC[C@]6(C)[C@H]5CC[C@]34C)O[C@@]2(O)C1		13.9 µM
COc1ccc(C(O)(CCC(C)C)C(CN2CCOCC2)c2ccc(Cl)cc2)cc1 (stereo not drawn)	6.03 µM	21 µM
Cn1c(=O)c(Oc2ccc(F)cc2)cc2cnc(NC3CCOCC3)nc21	> 25 µM	> 25 µM
CC1(C)N=C(N)N=C(N)N1c1ccc(CCCCc2ccc(Cl)c(S(=O)(=O)F)c2)c(Cl)c1	0.214 µM	15.1 µM
Clc1nc(Cl)nc(Nc2cccc3ccccc23)n1	84.2 µM	> 100 µM
Cc1cc2cc3c(=O)[nH]c(=O)[nH]c3nc2cc1C		> 100 µM
CCc1c(Cl)c(C)cc(O)c1Cl		51.3 µM
CC(C)OC(=O)[C@H](C)NP(=O)(OC[C@H]1O[C@@H](n2ccc(=O)[nH]c2=O)[C@](C)(F)[C@@H]1O)Oc1ccccc1 (stereo partly drawn)	> 100 µM	> 100 µM
C=COC(=O)N[C@H]1CCc2cc(OC)c(OC)c(OC)c2-c2ccc(SC)c(=O)cc21		> 100 µM
CN(C)c1ncnc2c1ncn2CCn1cnc2c(N(C)C)ncnc21		> 100 µM
O=C(O)c1ccc(C(=O)O)c2c(C(=O)O)ccc(C(=O)O)c12		> 100 µM
CSc1nc(NC2OC(COC(C)=O)C(OC(C)=O)C(OC(C)=O)C2OC(C)=O)c(N=CC=Nc2c(NC3OC(COC(C)=O)C(OC(C)=O)C(OC(C)=O)C3OC(C)=O)nc(SC)n(C)c2=O)c(=O)n1C (stereo not drawn)	> 50 µM	> 100 µM
O=S(=O)(Nc1ccc(Cl)cc1Cl)c1ccc(-c2cnc(C3CC3)o2)cc1	0.612 µM	> 53.2 µM
CCc1ccc(/C=C/c2ccc(O)c3ncccc23)[n+](C)c1	6.09 µM	> 100 µM
S=c1[nH]c2c(Cl)c(Cl)c(Cl)c(Cl)c2[nH]1		77.6 µM
O=C(/C=C/C=C/c1ccccc1)c1ccccc1		37.2 µM
Cc1ccc(Nc2oc(-c3ccccc3)nc2[P+](c2ccccc2)(c2ccccc2)c2ccccc2)cc1	0.585 µM	2.01 µM

System: KM12 colon
Assay: inhibition of tumour cell growth, NCI panel, 48 h

Compound	GI50	TGI
CN(C)C/C=C/C(=O)Nc1cc2c(Nc3ccc(F)c(Cl)c3)ncnc2cc1O[C@H]1CCOC1	1.25 µM and 1.99 µM	11.3 µM and > 10 µM
COc1cc(/C=C/C(=O)c2cccc(-n3cc(-c4ccc(Cl)cc4)[nH]c3=O)c2)ccc1O	1.6 µM	3.42 µM
CCN(Cc1ccc(F)cc1)c1ccc(CO)c(Br)c1	23.4 µM	63.1 µM
Cc1ccc2c(C3C(C#N)=C(N)Oc4cc5ccccc5cc43)cc(=O)oc2c1 (stereo not drawn)	0.724 µM	> 100 µM
COC(=O)c1cc2c(s1)-c1nccc3c1c(nc1ccccc13)C2=O	69.4 µM	> 100 µM
Oc1ccc(Nc2c3ccccc3nc3occ(Cl)c23)cc1	2.78 µM	17 µM
O=C(Nc1cc(C(F)(F)F)ccc1Cl)c1cccc(NC2=C(Cl)C(=O)N(Cc3ccccc3)C2=O)c1	52.9 µM	> 100 µM
CC1(Br)Cc2ccccc2C1=O (stereo not drawn)		25.8 µM
CN(C)C(=S)Sc1ccc([N+](=O)[O-])cc1[N+](=O)[O-]	2.81 µM	12.7 µM
CCOC(=O)/C=C/c1ccc(C#Cc2ccccc2)cc1	> 100 µM	> 100 µM
O=[P@@]1(c2ccccc2)O[C@H](COCc2ccccc2)[C@@H](OCc2ccccc2)[C@H](OCc2ccccc2)[C@H]1NCc1ccccc1	3.21 µM	47.3 µM
C[C@H]1CN[C@@H]2[C@@H](C)[C@H]3[C@@H](C[C@H]4[C@@H]5CC[C@H]6C[C@@H](N)CC[C@]6(C)[C@H]5CC[C@]34C)O[C@@]2(O)C1		11.1 µM
COc1ccc(C(O)(CCC(C)C)C(CN2CCOCC2)c2ccc(Cl)cc2)cc1 (stereo not drawn)	11.4 µM	26.2 µM
Cn1c(=O)c(Oc2ccc(F)cc2)cc2cnc(NC3CCOCC3)nc21	> 25 µM	> 25 µM
CC1(C)N=C(N)N=C(N)N1c1ccc(CCCCc2ccc(Cl)c(S(=O)(=O)F)c2)c(Cl)c1	1.36 µM	7.81 µM
Clc1nc(Cl)nc(Nc2cccc3ccccc23)n1	93.7 µM	> 100 µM
Cc1cc2cc3c(=O)[nH]c(=O)[nH]c3nc2cc1C		> 100 µM
CCc1c(Cl)c(C)cc(O)c1Cl		> 100 µM
CC(C)OC(=O)[C@H](C)NP(=O)(OC[C@H]1O[C@@H](n2ccc(=O)[nH]c2=O)[C@](C)(F)[C@@H]1O)Oc1ccccc1 (stereo partly drawn)	> 100 µM	> 100 µM
C=COC(=O)N[C@H]1CCc2cc(OC)c(OC)c(OC)c2-c2ccc(SC)c(=O)cc21		0.0388 µM
CN(C)c1ncnc2c1ncn2CCn1cnc2c(N(C)C)ncnc21		> 100 µM
O=C(O)c1ccc(C(=O)O)c2c(C(=O)O)ccc(C(=O)O)c12		> 100 µM
CSc1nc(NC2OC(COC(C)=O)C(OC(C)=O)C(OC(C)=O)C2OC(C)=O)c(N=CC=Nc2c(NC3OC(COC(C)=O)C(OC(C)=O)C(OC(C)=O)C3OC(C)=O)nc(SC)n(C)c2=O)c(=O)n1C (stereo not drawn)	> 50 µM	> 100 µM
O=S(=O)(Nc1ccc(Cl)cc1Cl)c1ccc(-c2cnc(C3CC3)o2)cc1	0.485 µM	25.9 µM
CCc1ccc(/C=C/c2ccc(O)c3ncccc23)[n+](C)c1	0.512 µM	> 100 µM
S=c1[nH]c2c(Cl)c(Cl)c(Cl)c(Cl)c2[nH]1		33.8 µM
O=C(/C=C/C=C/c1ccccc1)c1ccccc1		27.3 µM
Cc1ccc(Nc2oc(-c3ccccc3)nc2[P+](c2ccccc2)(c2ccccc2)c2ccccc2)cc1	0.861 µM	2.46 µM

System: HS 578T breast
Assay: inhibition of tumour cell growth, NCI panel, 48 h

Compound	GI50	TGI
CN(C)C/C=C/C(=O)Nc1cc2c(Nc3ccc(F)c(Cl)c3)ncnc2cc1O[C@H]1CCOC1	2.4 µM and 1.62 µM	13.3 µM and > 8.16 µM
COc1cc(/C=C/C(=O)c2cccc(-n3cc(-c4ccc(Cl)cc4)[nH]c3=O)c2)ccc1O	3.78 µM	26.9 µM
CCN(Cc1ccc(F)cc1)c1ccc(CO)c(Br)c1	13.5 µM	46.1 µM
Cc1ccc2c(C3C(C#N)=C(N)Oc4cc5ccccc5cc43)cc(=O)oc2c1 (stereo not drawn)	3.29 µM	> 100 µM
COC(=O)c1cc2c(s1)-c1nccc3c1c(nc1ccccc13)C2=O	28.2 µM	> 100 µM
Oc1ccc(Nc2c3ccccc3nc3occ(Cl)c23)cc1	5.62 µM	> 100 µM
O=C(Nc1cc(C(F)(F)F)ccc1Cl)c1cccc(NC2=C(Cl)C(=O)N(Cc3ccccc3)C2=O)c1	53.7 µM	> 100 µM
CC1(Br)Cc2ccccc2C1=O (stereo not drawn)		38.6 µM
CN(C)C(=S)Sc1ccc([N+](=O)[O-])cc1[N+](=O)[O-]	9.95 µM	56.3 µM
CCOC(=O)/C=C/c1ccc(C#Cc2ccccc2)cc1	> 100 µM	> 100 µM
O=[P@@]1(c2ccccc2)O[C@H](COCc2ccccc2)[C@@H](OCc2ccccc2)[C@H](OCc2ccccc2)[C@H]1NCc1ccccc1	3.43 µM	> 100 µM
C[C@H]1CN[C@@H]2[C@@H](C)[C@H]3[C@@H](C[C@H]4[C@@H]5CC[C@H]6C[C@@H](N)CC[C@]6(C)[C@H]5CC[C@]34C)O[C@@]2(O)C1		6.55 µM
COc1ccc(C(O)(CCC(C)C)C(CN2CCOCC2)c2ccc(Cl)cc2)cc1 (stereo not drawn)	15.2 µM	40.4 µM
